{"source": "patent EP0940081A1", "about": "“Combinations of active agents and disinfectants, preservatives and antiseptics containing same” (Bode Chemie GmbH & Co., priority 1998, dated 1999)", "key": {"Proteus mirabilis": {"test_system": "Proteus mirabilis", "experiment": "Agar incorporation test, bacteriostatic activity", "assay_type": "cell-based", "design": "key: ⊕⊕: ungehemmtes Wachstum; ⊕: vermindertes Wachstum; -: absolute Hemmung (a. H.)", "conditions": "24 h bei 36 °C", "text": "(§1) Methodik: Percarbamid und Dodecylthiouroniumchlorid werden unter städigem Durchmischen bis zur vollständigen Homogenisierung erwärmt. Die Prüfung der Kombination im Vergleich zu den entsprechenden Monowirkstoffen auf bakteriostatische Wirksamkeit erfolgte im Agarinkorporationstest. Die zu untersuchenden Substanzen wurden in Wasser standardisierter Härte gelöst. Die Konzentration der Testsubstanzen im Nähragar wurde in einer geometrischen Reihe auf der Basis 2 abgestuft. Zum Beimpfen der Testplatten wurden die im Beispiel 1 genannten Testkeime 6 h in Caseinpepton-Sojamehlpepton-Lösung bebrütet und so in eine logarithmische Wachstumsphase gebracht. Danach wurden die Agarplatten sternförmig sektorenweise mit jeweils einer ? abgestrichenen Öse beimpft. Der Sektor von Proteus mirabilis wurde durch Gräben abgetrennt, um das Schwärmen zu verhindern. Nach 24 h Bebrütung bei 36 °C erfolgte die Bewertung des Bakterienwachstums unter Vergleich mit substanzfreien Kontrollplatten nach folgendem Schema: ++++ ungehemmtes Wachstum +++ geringe Wachstumshemmung (maximal ¾ des Wachstums der Kontrollen) ++ mäßige Wachstumshemmung (maximal ½ des Wachstums der Kontrollen) + starke Wachstumshemmung (maximal ¼ des Wachstums der Kontrollen) Das sog. ? verminderte Wachstum\" (v. W.) umfaßt die Bereiche + bis +++ - absolute Hemmung (a. H.)\n(§2) In den Tabellen 5, 6 und 7 bedeuten ⊕⊕ ungehemmtes Wachstum und ⊕ vermindertes Wachstum."}, "Escherichia coli": {"test_system": "Escherichia coli", "experiment": "Agar incorporation test, bacteriostatic activity", "assay_type": "cell-based", "design": "key: ⊕⊕: ungehemmtes Wachstum; ⊕: vermindertes Wachstum; -: absolute Hemmung (a. H.)", "conditions": "24 h bei 36 °C", "text": "as §1, §2"}, "Enterococcus faecium": {"test_system": "Enterococcus faecium", "experiment": "Agar incorporation test, bacteriostatic activity", "assay_type": "cell-based", "design": "key: ⊕⊕: ungehemmtes Wachstum; ⊕: vermindertes Wachstum; -: absolute Hemmung (a. H.)", "conditions": "24 h bei 36 °C", "text": "as §1, §2"}, "Staphylococcus aureus": {"test_system": "Staphylococcus aureus", "experiment": "Agar incorporation test, bacteriostatic activity", "assay_type": "cell-based", "design": "key: ⊕⊕: ungehemmtes Wachstum; ⊕: vermindertes Wachstum; -: absolute Hemmung (a. H.)", "conditions": "24 h bei 36 °C", "text": "as §1, §2"}, "[1]": {"test_system": "Sporen von Bacillus subtilis var. niger ATCC 9372", "experiment": "Sporicidal activity on spore test strips", "assay_type": "cell-based", "conditions": "Monowirkstoff; Einwirkungszeit 3 Tage", "text": "Methodik: Kommerzielle Teststreifen mit 10^6 Sporen von Bacillus subtilis var. niger ATCC 9372 (BAG-Bio Strips, Biologische Analysensystem GmbH Lich) wurden für 3 Tage in eine Lösung der Prüfsubstanz eingelegt. Danach wurden die Teststreifen in eine Nährlösung überführt und 7 Tage bebrütet."}, "[2]": {"test_system": "FL-Linie (menschliche Amnionzellen)", "experiment": "Cytotoxicity, cell count of monolayer culture after 24 h exposure", "assay_type": "cell-based, human", "conditions": "for Median der Zellzahl: 24 h", "method": "Methodik: Die Zytotoxizität wird an der FL-Linie (menschliche Amnionzellen) geprüft. 2-3 Tage nach der Zelleinsaat werden die Zellen, nachdem sie als einschichtige Zellkultur (Monolayer) vorliegen, nach Medienwechsel für 24 h mit der Prüfsubstanz exponiert, danach abgelöst und die Zellzahl in % zur Kontrolle mit dem Zellzähler Universal 87001 (mölab, Hilden) ermittelt."}, "[3]": {"test_system": "humanen Amnionepithelzellen", "assay_type": "cell-based, human", "text": "Methodik: Die Untersuchungen wurden an einer Perfusionszellkultur mit humanen Amnionepithelzellen durchgeführt. Der Glucoseverbrauch wurde kontinuierlich von 1 bis 96 Stunden biosensorisch gemessen (Jülich et al., im Druck). Die Prüfsubstanzen wirkten von der 25. bis 48. Stunde ein."}, "Pseudomonas aeruginosa": {"test_system": "Pseudomonas aeruginosa", "experiment": "Agar incorporation test, bacteriostatic activity", "assay_type": "cell-based", "design": "key to Bakteriostatische Wirksamkeit (Wachstum): ⊕⊕: ungehemmtes Wachstum; ⊕: vermindertes Wachstum; -: absolute Hemmung (a. H.)", "conditions": "for Bakteriostatische Wirksamkeit (Wachstum): 24 h bei 36 °C", "text": "as §1, §2"}, "[4]": {"conditions": "Konzentration in Wasser 0,0015 %"}, "[5]": {"conditions": "Konzentration in Wasser 0,003 %"}, "[6]": {"conditions": "Konzentration in Wasser 0,006 %"}, "[7]": {"conditions": "Konzentration in Wasser 0,012 %"}, "[8]": {"conditions": "Konzentration in Wasser 0,025 %"}}}
{"substance": "Wasserstoffperoxid", "values": [{"measurement": "Bakteriostatische Wirksamkeit (Wachstum)", "setting": "Proteus mirabilis; Konzentration in Wasser 0,1 %", "result": "-"}, {"measurement": "Bakteriostatische Wirksamkeit (Wachstum)", "setting": "Proteus mirabilis; Konzentration in Wasser 0,2 %", "result": "-"}, {"measurement": "Bakteriostatische Wirksamkeit (Wachstum)", "setting": "Proteus mirabilis; Konzentration in Wasser 0,4 %", "result": "-"}, {"measurement": "Bakteriostatische Wirksamkeit (Wachstum)", "setting": "Proteus mirabilis; Konzentration in Wasser 0,05 %", "result": "-"}, {"measurement": "Bakteriostatische Wirksamkeit (Wachstum)", "setting": "Proteus mirabilis; Konzentration in Wasser 0,8 %", "result": "-"}, {"measurement": "Bakteriostatische Wirksamkeit (Wachstum)", "setting": "Proteus mirabilis; [4]", "result": "⊕⊕"}, {"measurement": "Bakteriostatische Wirksamkeit (Wachstum)", "setting": "Proteus mirabilis; [5]", "result": "⊕⊕"}, {"measurement": "Bakteriostatische Wirksamkeit (Wachstum)", "setting": "Proteus mirabilis; [6]", "result": "⊕⊕"}, {"measurement": "Bakteriostatische Wirksamkeit (Wachstum)", "setting": "Proteus mirabilis; [7]", "result": "-"}, {"measurement": "Bakteriostatische Wirksamkeit (Wachstum)", "setting": "Proteus mirabilis; [8]", "result": "-"}, {"measurement": "Bakteriostatische Wirksamkeit (Wachstum)", "setting": "Escherichia coli; Konzentration in Wasser 0,1 %", "result": "-"}, {"measurement": "Bakteriostatische Wirksamkeit (Wachstum)", "setting": "Escherichia coli; Konzentration in Wasser 0,2 %", "result": "-"}, {"measurement": "Bakteriostatische Wirksamkeit (Wachstum)", "setting": "Escherichia coli; Konzentration in Wasser 0,4 %", "result": "-"}, {"measurement": "Bakteriostatische Wirksamkeit (Wachstum)", "setting": "Escherichia coli; Konzentration in Wasser 0,05 %", "result": "-"}, {"measurement": "Bakteriostatische Wirksamkeit (Wachstum)", "setting": "Escherichia coli; Konzentration in Wasser 0,8 %", "result": "-"}, {"measurement": "Bakteriostatische Wirksamkeit (Wachstum)", "setting": "Escherichia coli; [4]", "result": "⊕⊕"}, {"measurement": "Bakteriostatische Wirksamkeit (Wachstum)", "setting": "Escherichia coli; [5]", "result": "⊕⊕"}, {"measurement": "Bakteriostatische Wirksamkeit (Wachstum)", "setting": "Escherichia coli; [6]", "result": "⊕⊕"}, {"measurement": "Bakteriostatische Wirksamkeit (Wachstum)", "setting": "Escherichia coli; [7]", "result": "-"}, {"measurement": "Bakteriostatische Wirksamkeit (Wachstum)", "setting": "Escherichia coli; [8]", "result": "-"}, {"measurement": "Bakteriostatische Wirksamkeit (Wachstum)", "setting": "Enterococcus faecium; Konzentration in Wasser 0,1 %", "result": "-"}, {"measurement": "Bakteriostatische Wirksamkeit (Wachstum)", "setting": "Enterococcus faecium; Konzentration in Wasser 0,2 %", "result": "-"}, {"measurement": "Bakteriostatische Wirksamkeit (Wachstum)", "setting": "Enterococcus faecium; Konzentration in Wasser 0,4 %", "result": "-"}, {"measurement": "Bakteriostatische Wirksamkeit (Wachstum)", "setting": "Enterococcus faecium; Konzentration in Wasser 0,05 %", "result": "-"}, {"measurement": "Bakteriostatische Wirksamkeit (Wachstum)", "setting": "Enterococcus faecium; Konzentration in Wasser 0,8 %", "result": "-"}, {"measurement": "Bakteriostatische Wirksamkeit (Wachstum)", "setting": "Enterococcus faecium; [4]", "result": "⊕⊕"}, {"measurement": "Bakteriostatische Wirksamkeit (Wachstum)", "setting": "Enterococcus faecium; [5]", "result": "⊕⊕"}, {"measurement": "Bakteriostatische Wirksamkeit (Wachstum)", "setting": "Enterococcus faecium; [6]", "result": "⊕"}, {"measurement": "Bakteriostatische Wirksamkeit (Wachstum)", "setting": "Enterococcus faecium; [7]", "result": "-"}, {"measurement": "Bakteriostatische Wirksamkeit (Wachstum)", "setting": "Enterococcus faecium; [8]", "result": "-"}, {"measurement": "Bakteriostatische Wirksamkeit (Wachstum)", "setting": "Staphylococcus aureus; Konzentration in Wasser 0,1 %", "result": "-"}, {"measurement": "Bakteriostatische Wirksamkeit (Wachstum)", "setting": "Staphylococcus aureus; Konzentration in Wasser 0,2 %", "result": "-"}, {"measurement": "Bakteriostatische Wirksamkeit (Wachstum)", "setting": "Staphylococcus aureus; Konzentration in Wasser 0,4 %", "result": "-"}, {"measurement": "Bakteriostatische Wirksamkeit (Wachstum)", "setting": "Staphylococcus aureus; Konzentration in Wasser 0,05 %", "result": "-"}, {"measurement": "Bakteriostatische Wirksamkeit (Wachstum)", "setting": "Staphylococcus aureus; Konzentration in Wasser 0,8 %", "result": "-"}, {"measurement": "Bakteriostatische Wirksamkeit (Wachstum)", "setting": "Staphylococcus aureus; [4]", "result": "⊕⊕"}, {"measurement": "Bakteriostatische Wirksamkeit (Wachstum)", "setting": "Staphylococcus aureus; [5]", "result": "⊕⊕"}, {"measurement": "Bakteriostatische Wirksamkeit (Wachstum)", "setting": "Staphylococcus aureus; [6]", "result": "⊕⊕"}, {"measurement": "Bakteriostatische Wirksamkeit (Wachstum)", "setting": "Staphylococcus aureus; [7]", "result": "-"}, {"measurement": "Bakteriostatische Wirksamkeit (Wachstum)", "setting": "Staphylococcus aureus; [8]", "result": "-"}, {"measurement": "Konzentration erforderlich zur Erreichung dieses Effektes (Reduktion der Sporen von 6 log-Stufen)", "setting": "[1]", "result": "0,6%"}, {"measurement": "Zellwachstum", "setting": "[2]", "result": "vollständigen Inhibierung des Zellwachstums"}, {"measurement": "Median der Zellzahl", "setting": "[2]; Prüfkonzentration 0,001 %", "result": "17,9 % der Kontrolle"}, {"measurement": "Median der Zellzahl", "setting": "[2]; Prüfkonzentration 0,0015 %", "result": "7,3 % der Kontrolle"}, {"measurement": "Glucosestoffwechsel der FL-Zellen", "setting": "[3]", "result": "signifikante, aber reversible Verminderung"}, {"measurement": "Bakteriostatische Wirksamkeit (Wachstum)", "setting": "Pseudomonas aeruginosa; Konzentration in Wasser 0,1 %", "result": "-"}, {"measurement": "Bakteriostatische Wirksamkeit (Wachstum)", "setting": "Pseudomonas aeruginosa; Konzentration in Wasser 0,2 %", "result": "-"}, {"measurement": "Bakteriostatische Wirksamkeit (Wachstum)", "setting": "Pseudomonas aeruginosa; Konzentration in Wasser 0,4 %", "result": "-"}, {"measurement": "Bakteriostatische Wirksamkeit (Wachstum)", "setting": "Pseudomonas aeruginosa; Konzentration in Wasser 0,05 %", "result": "-"}, {"measurement": "Bakteriostatische Wirksamkeit (Wachstum)", "setting": "Pseudomonas aeruginosa; Konzentration in Wasser 0,8 %", "result": "-"}, {"measurement": "Bakteriostatische Wirksamkeit (Wachstum)", "setting": "Pseudomonas aeruginosa; [4]", "result": "⊕⊕"}, {"measurement": "Bakteriostatische Wirksamkeit (Wachstum)", "setting": "Pseudomonas aeruginosa; [5]", "result": "⊕⊕"}, {"measurement": "Bakteriostatische Wirksamkeit (Wachstum)", "setting": "Pseudomonas aeruginosa; [6]", "result": "⊕⊕"}, {"measurement": "Bakteriostatische Wirksamkeit (Wachstum)", "setting": "Pseudomonas aeruginosa; [7]", "result": "⊕⊕"}, {"measurement": "Bakteriostatische Wirksamkeit (Wachstum)", "setting": "Pseudomonas aeruginosa; [8]", "result": "⊕⊕"}, {"measurement": "Konzentration, durch die Pseudomonas aeruginosa gehemmt wird (minimale Hemmkonzentration)", "setting": "Pseudomonas aeruginosa; single substance, resistentester Testkeim", "result": "0,05%"}]}
